In data set [1] the target is T1, E-selectin (Homo sapiens, UniProt P16581).
T1 construct: A 1.67 kbp DNA fragment encoding a truncated structural gene for E-selectin; made in house
T1 sequence (P16581 22-556 limits assumed): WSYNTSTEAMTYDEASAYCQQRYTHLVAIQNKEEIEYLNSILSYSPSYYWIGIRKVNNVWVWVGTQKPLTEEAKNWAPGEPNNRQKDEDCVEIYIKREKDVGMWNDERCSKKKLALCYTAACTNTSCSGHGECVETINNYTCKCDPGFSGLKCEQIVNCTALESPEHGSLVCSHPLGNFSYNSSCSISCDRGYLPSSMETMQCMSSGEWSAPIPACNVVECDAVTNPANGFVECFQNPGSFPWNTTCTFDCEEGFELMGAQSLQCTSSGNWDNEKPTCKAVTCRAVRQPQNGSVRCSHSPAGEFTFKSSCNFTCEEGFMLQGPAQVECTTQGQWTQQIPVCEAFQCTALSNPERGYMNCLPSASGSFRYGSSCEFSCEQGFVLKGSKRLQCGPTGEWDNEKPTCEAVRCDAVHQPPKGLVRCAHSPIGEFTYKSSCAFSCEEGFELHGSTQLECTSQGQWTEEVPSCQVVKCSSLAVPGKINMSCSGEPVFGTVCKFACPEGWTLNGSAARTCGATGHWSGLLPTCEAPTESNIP
Description: Inhibition of SLe^x glycoconjugate / HL-60 cell binding to immobilized sol-E-selectin. The procedure: Analysis of compound 6 (class II compound; FIG. 1) as an inhibitor of SLe^x glycoconjugate binding to E-selectin provides an IC50 value of 0.8 mM, according to the method of S. A. DeFrees, et al., viz. J. Am. Chem. Soc. 1995, 117, 66.
A soluble form of E-selectin (sol-E-selectin) was prepared for inhibition assays of the SLe^x Mimetics. A 1.67 kbp DNA fragment encoding a truncated structural gene for E-selectin was isolated by PCR amplification of CDNA derived from messenger RNA that was isolated from IL-1 activated human endothelial cells. The CDNA was subcloned into the vector pBluescript II and was transfected into 293 cells. The clones were screened for the production of sol-E-selectin, and the clone 293#3 was selected as the stable cell line that produced the greatest amount of sol-E-selectin per cell. Sol-E-selectin was produced on a large scale from this line using a Nunc cell factory. Recombinant sol-E-selectin was isolated from the media using immunoaffinity chromatography.
The SLe^x Mimetics were assayed for ability to block the adhesion of HL-60 cells to immobilized sol-E-selectins (either on a polymeric column solid support or onto the surface of the assay vessle). Immobilized E-selectin was incubated first with inhibitor and then with HL-60 cells. The bound cells were lysed, and myeloperoxidase released from the bound cells was detected with o-phenylenediamine and hydrogen peroxide. The percentage inhibition was determined by comparing the absorbance of the resulting solution at 492 nm to that in wells containing no inhibitor.
Each data point in the E-selectin assay is a direct measure of cells bound using a quantitative enzyme assay. The values were then plotted to give the titration curve and IC50 values. On average, five assays were performed for each inhibitor, and the results were highly reproducible. […] The IC50 values reported here is derived from all the data. Procedure described herein is adopted from Wong et. al. J. Am. Chem. Soc. 1995, 177, 66-79.

For data set [2], the system named is P-selectin. Description: Inhibition of P-selectin. In kind it is binding.
Data set [3] deals with L-selectin. Description: Inhibition of L-selectin. In kind it is binding.
Data set [4] relates to neutrophil/P-selection-dependent rat model. To be noted: cited from earlier work; for lung injury / tissue accumulation of neutrophils: intravenous infusion of up to 200 μg, cobra venom.
Data set [5] concerns lung injury in rats. To be noted: in vivo, read-out: IC50 value in vivo for protecting against lung injury; cited from earlier work.
Data set [6] deals with E-selectin. To be noted: in vitro; cited from earlier work.
The subject of data set [7] is E-selectin. As to conditions: cited from earlier work.
Data set [8] deals with adhesion of neutophils to endothelial cells. As to conditions: cited from earlier work.
The conditions of data set [9]: blood stream; glycosidase; cited from earlier work.
The conditions of data set [10]: cited from earlier work.

As a reminder, the IC50 is the concentration that gives 50% inhibition. As to `O=C(COP(=O)(O)O)[C@@H](O)[C@H](O)C[C@H]1O[C@H](CO)[C@@H](O)[C@H](O)[C@@H]1O` [Compound 6], in data set [1], the IC50 came out at 800 µM. Also, the “biological activity compared with SLe^x” value in data set [1] (compared with SLe^x (0.50 mM)) is “almost the same biological activity as SLe^x”. Further, in data set [2] (@ 3 mM), the “inhibition of P-selectin” value is given as over 80%. The “P-selectin inhibition activity compared with sialyl Lewis X” value in data set [2] (compared with sialyl lewis X) was “better or equal to that of sialyl lewis X”. Moreover, the “inhibition of L-selectin” value in data set [3] (@ 3 mM) is reported as over 80%. For the same molecule, the “L-selectin inhibition activity compared with sialyl Lewis X” value in [3] (compared with sialyl lewis X) is on record as “better or equal to that of sialyl lewis X”.

The molecule `CC(=O)NC1C(O)CC(OC2C(O)C(CO)OC(OC3C(CO)OC(O)C(NC(C)=O)C3OC3OC(C)C(O)C(O)C3O)C2O)(C(=O)O)OC1C(O)C(O)CO` (stereo not drawn) [SLe^x, NeuAcα2→3Galβ1→4(Fucα1→3GlcNAc] came in with an IC50 in data set [1] of 500 µM. Moreover, the effective intravenous concentration entry in data set [4] (calculated from concentrations used, 200 μg) is recorded as “less than 1 μM”. Also, in [4], the lung injury result is “dramatically reduced lung injury” and the “tissue accumulation of neutrophils” value is “diminished tissue accumulation of neutrophils”. For the same molecule, in [5], the IC50 is about 1 µM. In [6], the “affinity for E-selectin” value is reported as “relatively weak”. Besides, in data set [7], the “SLe^x/E-selectin interaction” value was “inhibits the SLe^x /E-selectin interaction”. In [8], the “adhesion of neutrophils to endothelial cells” value is “blocks adhesion of neutophils to endothelial cells”. The “stability in the blood” value in [9] is “unstable in the blood stream”. The oral activity result in [10] was “orally inactive”.

Turning to “NeuAcα2→3Galβ1→4(Fucα1→3)GlcNAcβ1, 3Galβ- [pentamer]”, in data set [4], the lung injury entry is on record as “dramatically reduced lung injury” and the “tissue accumulation of neutrophils” value is listed as “diminished tissue accumulation of neutrophils”.
